In patent US7709471B2, “Compounds” (AstraZeneca AB, priority 2006, dated 2010):

System: human colon tumour cell line HT29
Assay: Cellular Assay (phosphohistone H3 Ser10 mitotic marker, HT29)
Format: cell-based
Settings: HT-29, 24 h, HT29 cells, read-out: IC50 (cellular assay, phosphohistone H3)

Row | SMILES | IC50 [nM]
1 | CN1C(=O)C2(CC2)CN(C2CCCC2)c2nc(Nc3ccc(C(=O)NC4C[C@H]5CCC[C@@H](C4)N5C)cc3Cl)ncc21 (stereo partly drawn) [Example 402, 3-chloro-4-(9′-cyclopentyl-5′-methyl-6′-oxo-5′,6′,8′,9′-tetrahydrospiro[cyclopropane-1,7′-pyrimido[5,4-b][1,4]diazepine]-2′-ylamino)-N-[(1S,5R)-9-methyl-9-azabicyclo[3.3.1]non-7-yl]benzamide] | < 300
2 | COc1cc(C(=O)NC2C[C@H]3CCC[C@@H](C2)N3C)c(F)cc1Nc1ncc2c(n1)N(C1CCCC1)CC1(CC1)C(=O)N2C (stereo partly drawn) [Example 404, 4-(9′-cyclopentyl-5′-methyl-6′-oxo-5′,6′,8′,9′-tetrahydrospiro[cyclopropane-1,7′-pyrimido[5,4-b][1,4]diazepine]-2′-ylamino)-2-fluoro-5-methoxy-N-[(1S,5R)-9-methyl-9-azabicyclo[3.3.1]non-3-yl]benzamide] | < 300
3 | COc1cc(C(=O)NCC2(CN3CCCC3)CC2)c(F)cc1Nc1ncc2c(n1)N(C1CCCC1)CC1(CC1)C(=O)N2C [Example 405, 4-(9′-cyclopentyl-5′-methyl-6′-oxo-5′,6′,8′,9′-tetrahydrospiro[cyclopropane-1,7′-pyrimido[5,4-b][1,4]diazepine]-2′-ylamino)-2-fluoro-5-methoxy-N-[[1-(pyrrolidin-1-ylmethyl)cyclopropyl]methyl]benzamide] | < 1000
4 | CCN1CCC(NC(=O)c2ccc(Nc3ncc4c(n3)N(C3CCCC3)CC3(CC3)C(=O)N4C)c(F)c2)CC1 [Example 406, 4-(9′-cyclopentyl-5′-methyl-6′-oxo-5′,6′,8′,9′-tetrahydrospiro[cyclopropane-1,7′-pyrimido[5,4-b][1,4]diazepine]-2′-ylamino)-N-(1-ethyl-4-piperidyl)-3-fluoro-benzamide] | < 300
5 | CCN1CCC(NC(=O)c2cc(OC)c(Nc3ncc4c(n3)N(C3CCCC3)CC3(CC3)C(=O)N4C)cc2F)CC1 [Example 407, 4-(9′-cyclopentyl-5′-methyl-6′-oxo-5′,6′,8′,9′-tetrahydrospiro[cyclopropane-1,7′-pyrimido[5,4-b][1,4]diazepine]-2′-ylamino)-N-(1-ethyl-4-piperidyl)-2-fluoro-5-methoxy-benzamide] | < 300
6 | CN1CCC(NC(=O)c2ccc(Nc3ncc4c(n3)N(C3CCCC3)CC3(CC3)C(=O)N4C)c3c2OCO3)CC1 [Example 408, 7-(9′-cyclopentyl-5′-methyl-6′-oxo-5′,6′,8′,9′-tetrahydrospiro[cyclopropane-1,7′-pyrimido[5,4-b][1,4]diazepine]-2′-ylamino)-N-(1-methyl-4-piperidyl)benzo[1,3]dioxole-4-carboxamide] | < 300
7 | COc1cc(C(=O)NC2CCN(C)CC2)ccc1Nc1ncc2c(n1)N(C1CCCC1)CC1(CCCC1)C(=O)N2C [Example 409, 4-(9′-cyclopentyl-5′-methyl-6′-oxo-5′,6′,8′,9′-tetrahydrospiro[cyclopentane-1,7′-pyrimido[5,4-b][1,4]diazepine]-2′-ylamino)-3-methoxy-N-(1-methylpiperidin-4-yl)benzamide] | < 300
8 | CN1CCC(NC(=O)c2cc(F)c(Nc3ncc4c(n3)N(C3CCCCC3)CCC(=O)N4C)cc2Cl)CC1 [Example 411, 2-chloro-4-[(2-cyclohexyl-6-methyl-5-oxo-2,6,9,11-tetrazabicyclo[5.4.0]undeca-7,9,11-trien-10-yl)amino]-5-fluoro-N-(1-methyl-4-piperidyl)benzamide] | < 1000
9 | CN1C(=O)CCN(C2CCCCC2)c2nc(Nc3ccc(C(=O)NC4C[C@H]5CCC[C@@H](C4)N5C)cc3F)ncc21 (stereo partly drawn) [Example 417, 4-[(2-cyclohexyl-6-methyl-5-oxo-2,6,9,11-tetrazabicyclo[5.4.0]undeca-7,9,11-trien-10-yl)amino]-3-fluoro-N-[(1S,5R)-9-methyl-9-azabicyclo[3.3.1]non-7-yl]benzamide] | < 300
10 | COc1cc(C(=O)NC2C[C@H]3CCC[C@@H](C2)N3C)ccc1Nc1ncc2c(n1)N(C1CCCCC1)CCC(=O)N2C (stereo partly drawn) [Example 418, 4-[(2-cyclohexyl-6-methyl-5-oxo-2,6,9,11-tetrazabicyclo[5.4.0]undeca-7,9,11-trien-10-yl)amino]-3-methoxy-N-[(1R,5S)-9-methyl-9-azabicyclo[3.3.1]non-7-yl]benzamide] | < 300
11 | COc1cc(C(=O)NC2C[C@H]3CCC[C@@H](C2)N3C)c(F)cc1Nc1ncc2c(n1)N(C1CCCCC1)CCC(=O)N2C (stereo partly drawn) [Example 427, 4-[(2-cyclohexyl-6-methyl-5-oxo-2,6,9,11-tetrazabicyclo[5.4.0]undeca-7,9,11-trien-10-yl)amino]-2-fluoro-5-methoxy-N-[(1R,5S)-9-methyl-9-azabicyclo[3.3.1]non-7-yl]benzamide] | < 300
12 | CN1C(=O)C2(CC2)CN(C2CCCCC2)c2nc(Nc3ccc(C(=O)NC4C[C@H]5CCC[C@@H](C4)N5C)cc3F)ncc21 (stereo partly drawn) [Example 435, 4-(9′-cyclohexyl-5′-methyl-6′-oxo-5′,6′,8′,9′-tetrahydrospiro[cyclopropane-1,7′-pyrimido[5,4-b][1,4]diazepine]-2′-ylamino)-3-fluoro-N-[(1S,5R)-9-methyl-9-azabicyclo[3.3.1]non-7-yl]benzamide] | < 300

The next lines start with the values.

Row | IC50 [nM] | SMILES
13 | < 300 | CN1CCC(NC(=O)c2cc(F)c(Nc3ncc4c(n3)N(C3CCCCC3)CCC(=O)N4C)cc2F)CC1 [Example 412, 4-[(2-cyclohexyl-6-methyl-5-oxo-2,6,9,11-tetrazabicyclo[5.4.0]undeca-7,9,11-trien-10-yl)amino]-2,5-difluoro-N-(1-methyl-4-piperidyl)benzamide]
14 | < 1000 | CN1C(=O)CCN(C2CCCCC2)c2nc(Nc3cc(F)c(C(=O)NCC4(CN5CCCC5)CC4)cc3F)ncc21 [Example 413, 4-[(2-cyclohexyl-6-methyl-5-oxo-2,6,9,11-tetrazabicyclo[5.4.0]undeca-7,9,11-trien-10-yl)amino]-2,5-difluoro-N-[[1-(pyrrolidin-1-ylmethyl)cyclopropyl]methyl]benzamide]
15 | < 300 | CN1CC[C@@H](NC(=O)c2cc(F)c(Nc3ncc4c(n3)N(C3CCCCC3)CCC(=O)N4C)cc2F)C1 [Example 414, 4-[(2-cyclohexyl-6-methyl-5-oxo-2,6,9,11-tetrazabicyclo[5.4.0]undeca-7,9,11-trien-10-yl)amino]-2,5-difluoro-N-[(3R)-1-methylpyrrolidin-3-yl]benzamide]
16 | < 300 | CCN1CCC(NC(=O)c2cc(F)c(Nc3ncc4c(n3)N(C3CCCCC3)CCC(=O)N4C)cc2F)CC1 [Example 415, 4-[(2-cyclohexyl-6-methyl-5-oxo-2,6,9,11-tetrazabicyclo[5.4.0]undeca-7,9,11-trien-10-yl)amino]-N-(1-ethyl-4-piperidyl)-2,5-difluoro-benzamide]
17 | < 1000 | CN1C(=O)CCN(C2CCCCC2)c2nc(Nc3cc(F)c(C(=O)NCCN4CCCC4)cc3F)ncc21 [Example 416, 4-[(2-cyclohexyl-6-methyl-5-oxo-2,6,9,11-tetrazabicyclo[5.4.0]undeca-7,9,11-trien-10-yl)amino]-2,5-difluoro-N-(2-pyrrolidin-1-ylethyl)benzamide]
18 | < 1000 | COc1cc(C(=O)NCC2(CN3CCCC3)CC2)c(F)cc1Nc1ncc2c(n1)N(C1CCCCC1)CCC(=O)N2C [Example 419, 4-[(2-cyclohexyl-6-methyl-5-oxo-2,6,9,11-tetrazabicyclo[5.4.0]undeca-7,9,11-trien-10-yl)amino]-2-fluoro-5-methoxy-N-[[1-(pyrrolidin-1-ylmethyl)cyclopropyl]methyl]benzamide]
19 | < 300 | COc1cc(C(=O)N[C@@H]2CCN(C)C2)c(F)cc1Nc1ncc2c(n1)N(C1CCCCC1)CCC(=O)N2C [Example 420, 4-[(2-cyclohexyl-6-methyl-5-oxo-2,6,9,11-tetrazabicyclo[5.4.0]undeca-7,9,11-trien-10-yl)amino]-2-fluoro-5-methoxy-N-[(3R)-1-methylpyrrolidin-3-yl]benzamide]
20 | < 300 | COc1cc(C(=O)N[C@@H]2CCN(C)C2)ccc1Nc1ncc2c(n1)N(C1CCCCC1)CCC(=O)N2C [Example 421, 4-[(2-cyclohexyl-6-methyl-5-oxo-2,6,9,11-tetrazabicyclo[5.4.0]undeca-7,9,11-trien-10-yl)amino]-3-methoxy-N-[(3R)-1-methylpyrrolidin-3-yl]benzamide]
21 | < 300 | CCN1CCC(NC(=O)c2cc(OC)c(Nc3ncc4c(n3)N(C3CCCCC3)CCC(=O)N4C)cc2F)CC1 [Example 422, 4-[(2-cyclohexyl-6-methyl-5-oxo-2,6,9,11-tetrazabicyclo[5.4.0]undeca-7,9,11-trien-10-yl)amino]-N-(1-ethyl-4-piperidyl)-2-fluoro-5-methoxy-benzamide]
22 | < 300 | CCN1CCC(NC(=O)c2ccc(Nc3ncc4c(n3)N(C3CCCCC3)CCC(=O)N4C)c(OC)c2)CC1 [Example 423, 4-[(2-cyclohexyl-6-methyl-5-oxo-2,6,9,11-tetrazabicyclo[5.4.0]undeca-7,9,11-trien-10-yl)amino]-N-(1-ethyl-4-piperidyl)-3-methoxy-benzamide]
23 | < 300 | COc1cc(C(=O)NCCCN(C)C)ccc1Nc1ncc2c(n1)N(C1CCCCC1)CCC(=O)N2C [Example 424, 4-[(2-cyclohexyl-6-methyl-5-oxo-2,6,9,11-tetrazabicyclo[5.4.0]undeca-7,9,11-trien-10-yl)amino]-N-(3-dimethylaminopropyl)-3-methoxy-benzamide]
24 | < 300 | COc1cc(C(=O)NCCN2CCCC2)c(F)cc1Nc1ncc2c(n1)N(C1CCCCC1)CCC(=O)N2C [Example 425, 4-[(2-cyclohexyl-6-methyl-5-oxo-2,6,9,11-tetrazabicyclo[5.4.0]undeca-7,9,11-trien-10-yl)amino]-2-fluoro-5-methoxy-N-(2-pyrrolidin-1-ylethyl)benzamide]
25 | < 300 | COc1cc(C(=O)NCCN(C)C)ccc1Nc1ncc2c(n1)N(C1CCCCC1)CCC(=O)N2C [Example 426, 4-[(2-cyclohexyl-6-methyl-5-oxo-2,6,9,11-tetrazabicyclo[5.4.0]undeca-7,9,11-trien-10-yl)amino]-N-(2-dimethylaminoethyl)-3-methoxy-benzamide]
